Values of other authors as cited in patent publication US9937166B2 (INFLAMMATORY RESPONSE RESEARCH, INC., priority 2013, dated 2018).
Like-named read-outs stand apart in the source and are kept apart here.

Experiments:
ALI/ARDS = settings: in vivo
[1] = test system: histamine induced wheal and flare
H1 receptor = H1 receptor (Homo sapiens, UniProt P35367); settings: acidic pH, inflamed tissue
[2] = in vivo
[3] = test system: IL-4, IL-6, IL-8, ICAM-1, TLR3, NF-kappa B
[4] = for Time to reach steady state level: administered orally
[5] = not given; remark: listed apart in the source
influenza = settings: in vivo

Chain of H1 receptor (P35367 whole entry): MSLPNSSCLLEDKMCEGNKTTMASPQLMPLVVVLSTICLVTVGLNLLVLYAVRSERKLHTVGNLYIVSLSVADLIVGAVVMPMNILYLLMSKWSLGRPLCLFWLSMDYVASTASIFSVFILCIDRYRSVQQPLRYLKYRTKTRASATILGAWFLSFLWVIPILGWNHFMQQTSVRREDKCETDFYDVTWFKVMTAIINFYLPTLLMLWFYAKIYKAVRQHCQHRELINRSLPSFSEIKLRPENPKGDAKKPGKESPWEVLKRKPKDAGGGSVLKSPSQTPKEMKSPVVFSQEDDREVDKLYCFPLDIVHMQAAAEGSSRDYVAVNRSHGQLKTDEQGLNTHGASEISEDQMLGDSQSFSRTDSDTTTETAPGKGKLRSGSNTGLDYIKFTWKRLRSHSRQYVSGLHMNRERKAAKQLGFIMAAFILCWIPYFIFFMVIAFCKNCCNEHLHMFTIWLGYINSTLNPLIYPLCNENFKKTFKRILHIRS

## CC(=O)N[C@@H](CS)C(=O)O [N-acetylcysteine]
ALI/ARDS
  Outcome in large trials for ALI/ARDS: failed

## CCCCC[C@H](O)/C=C/[C@H]1[C@H](O)CC(=O)[C@@H]1CCCCCCC(=O)O [alprostadil]
ALI/ARDS
  Outcome in large trials for ALI/ARDS: failed

## CC(=O)N1CCN(c2ccc(OCC3COC(Cn4ccnc4)(c4ccc(Cl)cc4Cl)O3)cc2)CC1 (centres unmarked) [ketoconazole]
ALI/ARDS
  Outcome in large trials for ALI/ARDS: failed

## O=C(O)COCCN1CCN([C@H](c2ccccc2)c2ccc(Cl)cc2)CC1 [levocetirizine]
Higher doses
  Principal side effect experienced at higher doses: Sedation
humans
  Doses that can be safely administered: up to 30 mg/day
Eosinophil migration
  Eosinophil migration: decrease
[1]; histamine induced wheal and flare data
  Potency among the five modern generation antihistamines: most potent
[1]; levocetirizine 5 mg per day vs fexofenadine 180 mg per day
  Effectiveness compared with fexofenadine: more effective
H1 receptor
  Enhanced receptor affinity over first generation mepyramine / first generation molecules: up to 5 ×
H1 receptor; listed as Levocetirizine
  Enhanced receptor affinity over first generation mepyramine / first generation molecules: 5 ×
[2]
  Steady-state level (time to): 40 h
[3]
  Inflammatory mediators IL-4, IL-6, and IL-8: decrease
[3]; in vivo (so in the source)
  ICAM-1, IL-6, IL-8, TLR3 expression and NF-kappa B activation: decrease
Airway epithelial cells
  Rhinovirus-induced ICAM-1 and cytokine expression and viral replication: inhibits

## C[C@@H](O)CCCCn1c(=O)c2c(ncn2C)n(C)c1=O [lisofylline]
ALI/ARDS
  Outcome in large trials for ALI/ARDS: failed

## CC(C)(O)c1ccccc1CC[C@@H](SCC1(CC(=O)O)CC1)c1cccc(/C=C/c2ccc3ccc(Cl)cc3n2)c1 [montelukast]
[4]; IV 7 mg vs approved 10 mg oral tablet
  Plasma concentration area under the curve profile, IV vs oral tablet: comparable
[4]
  Time to reach steady state level: two
[4]; listed as Montelukast
  Time to reach steady state level: less than two
[4]; in vivo
  Absorption: rapidly absorbed
  Linear pharmacokinetics to dose: ≤ 50 mg
  Time to peak plasma concentration: 3 to 4 h
[4]; standard meal
  Effect of a standard meal on oral bioavailability and C.: not affected
[5]; adult patients for 22 weeks
  Doses without clinically important adverse experiences: up to 200 mg/day
[5]; short-term studies, approximately one week
  Doses without clinically important adverse experiences: up to 900 mg/day

## CCOC(=O)C1=C[C@@H](OC(CC)CC)[C@H](NC(C)=O)[C@@H](N)C1 [oseltamivir]
influenza
  Influenza related lower respiratory tract complications: did not appear to reduce

## O=C1N[C@H](C(=O)O)CS1 [procysteine]
ALI/ARDS
  Outcome in large trials for ALI/ARDS: failed
